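Exposure lasted 48 hours, with cells grown in 96-well plates and compounds tested at five concentrations. GI50 = concentration required for 50% inhibition of growth.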 Active and inactive are the calls of the source. Rule as the data show it: active = GI50 up to about 1.1 µM and inactive = higher.
Experiments:
Assay in all cases: NCI tumour cell line growth inhibition, 48 h
TK-10 = tested on: TK-10
SW-620 = tested on: SW-620
NCI-H23 = tested on: NCI-H23
RPMI-8226 = tested on: RPMI-8226
NCI-H522 = tested on: NCI-H522
UACC-257 = tested on: UACC-257
LOX IMVI = tested on: LOX IMVI
IGROV-1 = tested on: IGROV-1
786-0 = tested on: 786-0
UACC-62 = tested on: UACC-62
HCC 2998 = tested on: HCC 2998
SK-OV-3 = tested on: SK-OV-3
HOP-62 = tested on: HOP-62
HL-60 = tested on: HL-60
CAKI-1 = tested on: CAKI-1
DU-145 = tested on: DU-145
T47D = tested on: T47D
PC-3 = tested on: PC-3
MDA-MB-435 = tested on: MDA-MB-435

Measured: GI50

Cc1c(C)c2cc3c(=O)ccoc3c(C)c2oc1=O
inactive: TK-10 > 100 µM | SW-620 > 100 µM | NCI-H23 > 100 µM | RPMI-8226 > 100 µM | NCI-H522 69.8 µM | UACC-257 > 100 µM | LOX IMVI 54 µM | IGROV-1 39.8 µM | 786-0 > 100 µM | UACC-62 21.9 µM | HCC 2998 > 100 µM | SK-OV-3 57.1 µM | HOP-62 > 100 µM | HL-60 50.2 µM

CN1C(NCCO)=NS(=O)(=O)c2ccccc21
inactive: CAKI-1 > 100 µM | TK-10 > 100 µM | SW-620 > 100 µM | NCI-H23 > 100 µM | NCI-H522 > 100 µM | DU-145 > 100 µM | UACC-257 > 100 µM | LOX IMVI > 100 µM | IGROV-1 > 100 µM | T47D > 100 µM | 786-0 > 100 µM | UACC-62 > 100 µM | PC-3 > 100 µM | HCC 2998 > 100 µM | SK-OV-3 > 100 µM | HOP-62 > 100 µM | HL-60 > 100 µM | MDA-MB-435 > 100 µM

COc1ccc(CCNC(=O)CCCCCO)cc1OC
inactive: CAKI-1 > 100 µM | TK-10 > 100 µM | SW-620 > 100 µM | NCI-H23 > 100 µM | RPMI-8226 > 100 µM | NCI-H522 > 100 µM | DU-145 > 100 µM | UACC-257 > 100 µM | IGROV-1 > 100 µM | T47D > 100 µM | 786-0 > 100 µM | UACC-62 > 100 µM | PC-3 > 100 µM | HCC 2998 > 100 µM | SK-OV-3 > 100 µM | HOP-62 > 100 µM | HL-60 > 100 µM | MDA-MB-435 > 100 µM

COC(=O)N/N=C(\C)c1c(O)cc(C)oc1=O
inactive: TK-10 33.2 µM | SW-620 25.9 µM | NCI-H23 > 100 µM | UACC-257 > 100 µM | LOX IMVI 7.85 µM | IGROV-1 > 100 µM | 786-0 56.2 µM | UACC-62 5.62 µM | HCC 2998 43.9 µM | SK-OV-3 > 100 µM | HOP-62 36.2 µM | HL-60 45.2 µM

COC(=O)[C@@]12OC[C@]34C([C@@H](O)C1O)[C@@]1(C)CC(=O)C(OC(=O)/C=C(/c5ccccc5)C(F)(F)F)=C(C)C1C[C@H]3OC(=O)[C@H](O)[C@H]42 (stereo partly specified)
inactive: CAKI-1 20.1 µM | TK-10 10.1 µM | NCI-H23 4.56 µM | RPMI-8226 2.06 µM | NCI-H522 6.35 µM | UACC-257 8.73 µM | IGROV-1 3.9 µM | 786-0 9.04 µM | UACC-62 2.36 µM | HCC 2998 3.44 µM | SK-OV-3 7.89 µM | HOP-62 12.4 µM | HL-60 1.16 µM

Cc1ccnc(NC(=S)Nc2ccc([N+](=O)[O-])cc2)c1
inactive: TK-10 > 100 µM | SW-620 > 100 µM | NCI-H23 > 100 µM | RPMI-8226 > 100 µM | DU-145 34.6 µM | UACC-257 > 100 µM | LOX IMVI > 100 µM | IGROV-1 46.2 µM | T47D > 100 µM | 786-0 75.3 µM | UACC-62 > 100 µM | PC-3 > 100 µM | HCC 2998 > 100 µM | SK-OV-3 37.9 µM | HOP-62 78 µM | HL-60 > 100 µM | MDA-MB-435 > 100 µM

O=C1C2C3C=C4c5ccccc5N(c5ccccc5)C4(C2C(=O)N1c1ccc(Br)cc1)[C@H]1C(=O)N(c2ccc(Br)cc2)C(=O)[C@@H]31 (stereo partly specified)
inactive: CAKI-1 18.8 µM | TK-10 89.3 µM | SW-620 > 100 µM | NCI-H23 > 100 µM | RPMI-8226 3.41 µM | NCI-H522 > 100 µM | UACC-257 > 100 µM | LOX IMVI 87.9 µM | IGROV-1 > 100 µM | 786-0 > 100 µM | UACC-62 > 100 µM | SK-OV-3 > 100 µM | HOP-62 > 100 µM | HL-60 > 100 µM

CCCC/C=C1\CCC(C)(CN(C)C)C1=O (stereo unspecified)
inactive: CAKI-1 > 100 µM | TK-10 > 100 µM | SW-620 > 100 µM | NCI-H23 > 100 µM | NCI-H522 28.9 µM | UACC-257 > 100 µM | IGROV-1 > 100 µM | 786-0 > 100 µM | UACC-62 > 100 µM | HCC 2998 > 100 µM | HOP-62 > 100 µM | HL-60 55.5 µM

Cc1cc(-c2ccccc2)cc2[n+]1CC=C2.[O-][Cl+3]([O-])([O-])[O-]
inactive: CAKI-1 > 100 µM | TK-10 46.6 µM | SW-620 > 100 µM | NCI-H23 59.2 µM | NCI-H522 39.6 µM | UACC-257 > 100 µM | LOX IMVI > 100 µM | 786-0 > 100 µM | HCC 2998 > 100 µM | HOP-62 > 100 µM | HL-60 72.3 µM

CCOc1ccc(NC(=O)CCc2nnc(SC)o2)cc1
inactive: CAKI-1 > 100 µM | TK-10 > 100 µM | SW-620 > 100 µM | NCI-H23 > 100 µM | NCI-H522 > 100 µM | UACC-257 > 100 µM | LOX IMVI > 100 µM | IGROV-1 > 100 µM | 786-0 > 100 µM | UACC-62 > 100 µM | HCC 2998 > 100 µM | SK-OV-3 > 100 µM | HOP-62 > 100 µM | HL-60 > 100 µM

COC(=O)C12C34C=CC5(CCC6(C=CC1(CC3)O6)C52C(=O)OC)O4 (stereo unspecified)
inactive: CAKI-1 > 100 µM | TK-10 > 100 µM | SW-620 > 100 µM | NCI-H23 > 100 µM | NCI-H522 > 100 µM | UACC-257 > 100 µM | LOX IMVI > 100 µM | IGROV-1 > 100 µM | 786-0 > 100 µM | HCC 2998 > 100 µM | SK-OV-3 > 100 µM | HOP-62 > 100 µM | HL-60 > 100 µM

C/C(=N/NC(=O)C(N)=O)C(CC(C(=O)Nc1ccccc1C)/C(C)=N\NC(=O)C(N)=O)C(=O)Nc1ccccc1C (stereo unspecified)
inactive: CAKI-1 > 100 µM | TK-10 > 100 µM | SW-620 > 100 µM | NCI-H23 > 100 µM | RPMI-8226 > 100 µM | NCI-H522 66.4 µM | UACC-257 > 100 µM | LOX IMVI > 100 µM | IGROV-1 > 100 µM | 786-0 > 100 µM | HCC 2998 > 100 µM | SK-OV-3 > 100 µM | HOP-62 > 100 µM | HL-60 > 100 µM

C=CCCCCCCCCCCCC1CCC(CC)N1 (stereo unspecified)
inactive: CAKI-1 11.2 µM | TK-10 16.8 µM | SW-620 11.4 µM | NCI-H23 14.4 µM | RPMI-8226 8.28 µM | NCI-H522 3.78 µM | UACC-257 13.9 µM | LOX IMVI 9.66 µM | IGROV-1 10.1 µM | 786-0 9.1 µM | UACC-62 14.2 µM | HCC 2998 3.37 µM | SK-OV-3 15.1 µM | HOP-62 12.3 µM | HL-60 3.05 µM

Cc1cc(C)c(C(=O)/C(=C/c2ccccc2)c2ccccc2)c(C)c1
inactive: CAKI-1 36.8 µM | TK-10 93.5 µM | SW-620 60 µM | NCI-H23 40 µM | RPMI-8226 37.1 µM | NCI-H522 26.2 µM | UACC-257 28.4 µM | IGROV-1 86.3 µM | 786-0 56.2 µM | UACC-62 > 100 µM | SK-OV-3 > 100 µM | HOP-62 > 100 µM | HL-60 27.5 µM

O=C(Nc1c(O)[nH]c(=S)[nH]c1=O)c1ccccc1F
inactive: CAKI-1 > 100 µM | TK-10 > 100 µM | SW-620 > 100 µM | NCI-H23 > 100 µM | RPMI-8226 > 100 µM | NCI-H522 > 100 µM | UACC-257 > 100 µM | LOX IMVI > 100 µM | IGROV-1 > 100 µM | 786-0 > 100 µM | UACC-62 > 100 µM | SK-OV-3 > 100 µM | HOP-62 > 100 µM | HL-60 > 100 µM

S=c1sc2c(S)nc(S)nc2n1-c1ccccc1
inactive: CAKI-1 > 100 µM | TK-10 > 100 µM | SW-620 > 100 µM | NCI-H23 > 100 µM | RPMI-8226 > 100 µM | NCI-H522 41.5 µM | UACC-257 > 100 µM | LOX IMVI > 100 µM | IGROV-1 > 100 µM | 786-0 > 100 µM | UACC-62 > 100 µM | HCC 2998 > 100 µM | SK-OV-3 > 100 µM | HOP-62 > 100 µM | HL-60 > 100 µM

CCOc1ccc(/N=C/c2c3ccccc3nc3ccccc23)cc1
inactive: CAKI-1 58.2 µM | TK-10 83 µM | SW-620 31.3 µM | NCI-H23 54 µM | RPMI-8226 21.8 µM | NCI-H522 49 µM | UACC-257 55.1 µM | LOX IMVI 40.1 µM | IGROV-1 > 100 µM | 786-0 39.7 µM | UACC-62 95.3 µM | HCC 2998 > 100 µM | SK-OV-3 > 100 µM | HOP-62 39.4 µM | HL-60 11 µM

CCCCCCCCCCCCCCCCOC(=O)c1cc(O)cc(C(=O)OCCCCCCCCCCCCCCCC)c1
inactive: CAKI-1 > 100 µM | TK-10 > 100 µM | SW-620 > 100 µM | NCI-H23 > 100 µM | RPMI-8226 > 100 µM | NCI-H522 > 100 µM | UACC-257 > 100 µM | LOX IMVI > 100 µM | IGROV-1 > 100 µM | 786-0 > 100 µM | UACC-62 > 100 µM | HCC 2998 > 100 µM | SK-OV-3 > 100 µM | HL-60 > 100 µM
